Assay results: patent US20250255848A1, “SUBSTITUTED 6,7-DIHYDRO-5H-BENZO[7]ANNULENE DERIVATIVES, PROCESSES FOR THEIR PREPARATION AND THERAPEUTIC USES THEREOF” (SANOFI, priority 2022, published 2025)

Biological target: ERα (Homo sapiens (Human), UniProt P03372)
Assay: Estrogen receptor degradation activity: breast cancer cell ERα in cell western assay
Format: cell-based
Settings: MCF7 cells; for % Degradation At 0.3 μM: 4 hours, normalised to fulvestrant 0.1 μM and DMSO; for IC50: 4 hours post compound addition, concentration which degrades 50% of the estrogen receptor
Procedure: Said test involves measuring the in vitro degradation activity of the compounds of the Table 1a.
The measurements of the degradation activities were made using a breast cancer cell ERα in cell western assay as described hereunder.
MCF7 cells (ATCC) were seeded in 384 wells microplate (collagen coated) at a concentration of 10000 cells/30 μL per well in red phenol free MEM alpha medium (invitrogen) containing 5% charcoal dextran striped FBS. The following day, 9 points serial 1:5 dilution of each compound was added to the cells in 2.5 μL at final concentrations ranging from 0.3-0.0000018 μM (in table 2), or 0.1 μM for fulvestrant (using as positive control). At 4 hours post compound addition the cells were fixed by adding 25 μL of formalin (final concentration 5% formalin containing 0.1% triton) for 10 minutes at room temperature and then washed twice with PBS. Then, 50 μL of LI-COR blocking buffer containing 0.1% Triton was added to plate for 30 minutes at room temperature. LI-COR blocking buffer was removed and cells were incubated overnight at cold room with 50 μL anti-ER rabbit monoclonal antibody (Thermo scientific MA1-39540) diluted at 1:1000 in LI-COR blocking buffer containing 0.1% tween-20. Wells which were treated with blocking buffer but no antibody were used as background control. Wells were washed twice with PBS (0.1% tween-20) and incubated at 37° C. for 60 minutes in LI-COR (0.1% tween-20) containing goat anti-rabbit antibody Alexa 488 (1:1000) and Syto-64 a DNA dye (2 μM final concentration). Cells were then washed 3 times in PBS and scanned in ACUMEN explorer (TTP-Labtech). Integrated intensities in the green fluorescence and red fluorescence were measured to determine the levels of ERα and DNA respectively.
The degradation activity with respect to estrogen receptors in this test is given by the concentration which degrades 50% of the estrogen receptor (or IC50) in nM.
The % of ERα levels decrease were determined as follows: % inhibition=100*(1−(sample−fulvestrant:DMSO−fulvestrant)).

Chain of ERα (P03372 whole entry): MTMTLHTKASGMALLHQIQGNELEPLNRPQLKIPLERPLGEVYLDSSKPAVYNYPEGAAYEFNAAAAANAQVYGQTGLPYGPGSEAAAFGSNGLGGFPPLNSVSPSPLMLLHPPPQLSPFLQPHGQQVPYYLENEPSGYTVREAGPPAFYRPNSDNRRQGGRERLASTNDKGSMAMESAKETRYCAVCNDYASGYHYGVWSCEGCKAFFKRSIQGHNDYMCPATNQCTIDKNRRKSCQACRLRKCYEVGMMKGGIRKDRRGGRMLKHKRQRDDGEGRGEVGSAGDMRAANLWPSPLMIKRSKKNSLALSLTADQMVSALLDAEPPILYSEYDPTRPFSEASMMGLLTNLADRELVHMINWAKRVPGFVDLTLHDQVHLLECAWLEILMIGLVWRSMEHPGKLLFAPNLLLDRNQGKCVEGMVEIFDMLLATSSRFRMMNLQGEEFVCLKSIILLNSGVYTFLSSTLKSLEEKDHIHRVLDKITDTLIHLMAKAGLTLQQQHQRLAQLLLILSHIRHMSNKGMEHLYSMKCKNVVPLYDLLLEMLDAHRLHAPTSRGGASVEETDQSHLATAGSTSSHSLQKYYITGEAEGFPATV

| Compound | % Degradation At 0.3 μM [%] | IC50 [nM] |
| --- | --- | --- |
| COc1cc(C)c(C2=C(c3ccc(C=C4CN(CCCF)C4)cc3)c3ccc(C(=O)O)cc3CCC2)c(C)c1 [Compound 18, 9-(4-((1-(3-fluoropropyl)azetidin-3-ylidene)methyl)phenyl)-8-(4-methoxy-2,6-dimethylphenyl)-6,7-dihydro-5H-benzo[7]annulene-3-carboxylic acid] | 91 | 0.6 |
| CCc1ccc(C2=C(c3ccc(C=C4CN(CCCF)C4)cc3)c3ccc(C(=O)O)cc3CCC2)c(C(F)(F)F)c1 [Compound 19, 8-(4-ethyl-2-(trifluoromethyl)phenyl)-9-(4-((1-(3-fluoropropyl)azetidin-3-ylidene)methyl)phenyl)-6,7-dihydro-5H-benzo[7]annulene-3-carboxylic acid] | 92 | 0.2 |
| O=C(O)c1ccc2c(c1)CCCC(c1c(F)cccc1C(F)(F)F)=C2c1ccc(C=C2CN(CCCF)C2)cc1 [Compound 20, 8-(2-fluoro-6-(trifluoromethyl)phenyl)-9-(4-((1-(3-fluoropropyl)azetidin-3-ylidene)methyl)phenyl)-6,7-dihydro-5H-benzo[7]annulene-3-carboxylic acid] | 94 | 0.6 |
| Cc1c(OC(F)(F)F)cccc1C1=C(c2ccc(C=C3CN(CCCF)C3)cc2)c2ccc(C(=O)O)cc2CCC1 [Compound 24, 9-(4-((1-(3-fluoropropyl)azetidin-3-ylidene)methyl)phenyl)-8-(2-methyl-3-(trifluoromethoxy)phenyl)-6,7-dihydro-5H-benzo[7]annulene-3-carboxylic acid] | 91 | 0.5 |
| CCc1cc(C(F)(F)F)ccc1C1=C(c2ccc(C=C3CN(CCCF)C3)cc2)c2ccc(C(=O)O)cc2CCC1 [Compound 25, 8-(2-ethyl-4-(trifluoromethyl)phenyl)-9-(4-((1-(3-fluoropropyl)azetidin-3-ylidene)methyl)phenyl)-6,7-dihydro-5H-benzo[7]annulene-3-carboxylic acid] | 91 | 0.4 |
| Cc1cc(C2=C(c3ccc(C=C4CN(CCCF)C4)cc3)c3ccc(C(=O)O)cc3CCC2)c(C)cc1F [Compound 27, 8-(4-fluoro-2,5-dimethylphenyl)-9-(4-((1-(3-fluoropropyl)azetidin-3-ylidene)methyl)phenyl)-6,7-dihydro-5H-benzo[7]annulene-3-carboxylic acid] | 93 | 0.5 |
| Cc1cc(C2=C(c3ccc(C=C4CN(CCCF)C4)cc3)c3ccc(C(=O)O)cc3CCC2)ccc1C(F)F [Compound 28, 8-(4-(difluoromethyl)-3-methylphenyl)-9-(4-((1-(3-fluoropropyl)azetidin-3-ylidene)methyl)phenyl)-6,7-dihydro-5H-benzo[7]annulene-3-carboxylic acid] | 94 | 0.5 |
| O=C(O)c1ccc2c(c1)CCCC(c1ccccc1CF)=C2c1ccc(C=C2CN(CCCF)C2)cc1 [Compound 32, 8-(2-(fluoromethyl)phenyl)-9-(4-((1-(3-fluoropropyl)azetidin-3-ylidene)methyl)phenyl)-6,7-dihydro-5H-benzo[7]annulene-3-carboxylic acid] | 91 | 0.3 |
| O=C(O)c1ccc2c(c1)CCCC(c1cccc(F)c1OC(F)F)=C2c1ccc(C=C2CN(CCCF)C2)cc1 [Compound 33, 8-(2-(difluoromethoxy)-3-fluorophenyl)-9-(4-((1-(3-fluoropropyl)azetidin-3-ylidene)methyl)phenyl)-6,7-dihydro-5H-benzo[7]annulene-3-carboxylic acid] | 91 | 0.3 |
| COc1ccc(C2=C(c3ccc(C=C4CN(CCCF)C4)cc3)c3ccc(C(=O)O)cc3CCC2)c(C(F)F)c1 [Compound 37, 8-(2-(difluoromethyl)-4-methoxyphenyl)-9-(4-((1-(3-fluoropropyl)azetidin-3-ylidene)methyl)phenyl)-6,7-dihydro-5H-benzo[7]annulene-3-carboxylic acid] | 91 | 0.6 |
| O=C(O)c1ccc2c(c1)CCCC(c1cccc(F)c1CF)=C2c1ccc(C=C2CN(CCCF)C2)cc1 [Compound 38, 8-(3-fluoro-2-(fluoromethyl)phenyl)-9-(4-((1-(3-fluoropropyl)azetidin-3-ylidene)methyl)phenyl)-6,7-dihydro-5H-benzo[7]annulene-3-carboxylic acid] | 90 | 0.4 |

Further lines, results first:

| % Degradation At 0.3 μM [%] | IC50 [nM] | Compound |
| --- | --- | --- |
| 93 | 0.5 | Cc1cccc(Cl)c1C1=C(c2ccc(C=C3CN(CCCF)C3)cc2)c2ccc(C(=O)O)cc2CCC1 [Compound 21, 8-(2-chloro-6-methylphenyl)-9-(4-((1-(3-fluoropropyl)azetidin-3-ylidene)methyl)phenyl)-6,7-dihydro-5H-benzo[7]annulene-3-carboxylic acid] |
| 94 | 0.5 | COc1cccc(F)c1C1=C(c2ccc(C=C3CN(CCCF)C3)cc2)c2ccc(C(=O)O)cc2CCC1 [Compound 22, 8-(2-fluoro-6-methoxyphenyl)-9-(4-((1-(3-fluoropropyl)azetidin-3-ylidene)methyl)phenyl)-6,7-dihydro-5H-benzo[7]annulene-3-carboxylic acid] |
| 91 | 0.4 | COc1cccc(Cl)c1C1=C(c2ccc(C=C3CN(CCCF)C3)cc2)c2ccc(C(=O)O)cc2CCC1 [Compound 23, 8-(2-chloro-6-methoxyphenyl)-9-(4-((1-(3-fluoropropyl)azetidin-3-ylidene)methyl)phenyl)-6,7-dihydro-5H-benzo[7]annulene-3-carboxylic acid] |
| 91 | 0.2 | Cc1cccc(F)c1C1=C(c2ccc(C=C3CN(CCCF)C3)cc2)c2ccc(C(=O)O)cc2CCC1 [Compound 26, 8-(2-fluoro-6-methylphenyl)-9-(4-((1-(3-fluoropropyl)azetidin-3-ylidene)methyl)phenyl)-6,7-dihydro-5H-benzo[7]annulene-3-carboxylic acid] |
| 93 | 0.6 | COc1cc(C(F)F)ccc1C1=C(c2ccc(C=C3CN(CCCF)C3)cc2)c2ccc(C(=O)O)cc2CCC1 [Compound 29, 8-(4-(difluoromethyl)-2-methoxyphenyl)-9-(4-((1-(3-fluoropropyl)azetidin-3-ylidene)methyl)phenyl)-6,7-dihydro-5H-benzo[7]annulene-3-carboxylic acid] |
| 91 | 0.4 | Cc1cccc(C2=C(c3ccc(C=C4CN(CCCF)C4)cc3)c3ccc(C(=O)O)cc3CCC2)c1C(F)F [Compound 30, 8-(2-(difluoromethyl)-3-methylphenyl)-9-(4-((1-(3-fluoropropyl)azetidin-3-ylidene)methyl)phenyl)-6,7-dihydro-5H-benzo[7]annulene-3-carboxylic acid] |
| 95 | 37.8 | COc1cc(C2=C(c3ccc(C=C4CN(CCCF)C4)cc3)c3ccc(C(=O)O)cc3CCC2)ccc1C(F)F [Compound 31, 8-(4-(difluoromethyl)-3-methoxyphenyl)-9-(4-((1-(3-fluoropropyl)azetidin-3-ylidene)methyl)phenyl)-6,7-dihydro-5H-benzo[7]annulene-3-carboxylic acid] |
| 94 | 0.7 | O=C(O)c1ccc2c(c1)CCCC(c1cccc(Cl)c1OC(F)(F)F)=C2c1ccc(C=C2CN(CCCF)C2)cc1 [Compound 34, 8-(3-chloro-2-(trifluoromethoxy)phenyl)-9-(4-((1-(3-fluoropropyl)azetidin-3-ylidene)methyl)phenyl)-6,7-dihydro-5H-benzo[7]annulene-3-carboxylic acid] |
| 92 | 0.3 | CCc1c(F)cccc1C1=C(c2ccc(C=C3CN(CCCF)C3)cc2)c2ccc(C(=O)O)cc2CCC1 [Compound 39, 8-(2-ethyl-3-fluorophenyl)-9-(4-((1-(3-fluoropropyl)azetidin-3-ylidene)methyl)phenyl)-6,7-dihydro-5H-benzo[7]annulene-3-carboxylic acid] |
| 91 | 0.5 | COc1c(F)cccc1C1=C(c2ccc(C=C3CN(CCCF)C3)cc2)c2ccc(C(=O)O)cc2CCC1 [Compound 40, 8-(3-fluoro-2-methoxyphenyl)-9-(4-((1-(3-fluoropropyl)azetidin-3-ylidene)methyl)phenyl)-6,7-dihydro-5H-benzo[7]annulene-3-carboxylic acid] |
| 91 | 0.7 | COc1cccc(C2=C(c3ccc(C=C4CN(CCCF)C4)cc3)c3ccc(C(=O)O)cc3CCC2)c1C [Compound 41, 9-(4-((1-(3-fluoropropyl)azetidin-3-ylidene)methyl)phenyl)-8-(3-methoxy-2-methylphenyl)-6,7-dihydro-5H-benzo[7]annulene-3-carboxylic acid] |
